Data: US4339535A, “Process for preparing antibiotic EM 4940” (E. R. Squibb & Sons, Inc., priority 1980, dated 1982)
In brackets after ≈: the same amount, converted by molar mass. Read-outs that look alike come from different tables or passages of the source.

What was measured:
Bifidobacterium dentium = assay: MIC anaerobic screen; type: cell-based; conditions: Table IV, strain 11,260, read-out: Minimum Inhibitory Concentration
Hemophilus vaginalis = assay: MIC anaerobic screen; type: cell-based; conditions: Table IV
[1] = test system: Acinetobacter calcoaceticus; assay: MIC aerobic screen, BA-2 agar; conditions: Acinetobacter calcoaceticus, strain 8333
Klebsiella aerogenes = assay: MIC aerobic screen, BA-2 agar; conditions: Klebsiella aerogenes, strain 10,436
Klebsiella pneumoniae = assay: MIC aerobic screen, BA-2 agar
Proteus morganii = assay: MIC aerobic screen, BA-2 agar; conditions: Morganella morganii, strain 9774
Pseudomonas aeruginosa [2] = assay: MIC aerobic screen, BA-2 agar; conditions: Pseudomonas aeruginosa
Salmonella typhimurium = assay: MIC aerobic screen, BA-2 agar
Staphylococcus aureus = assay: MIC aerobic screen, BA-2 agar; conditions: Staphylococcus aureus
Streptococcus faecalis [3] = assay: MIC aerobic screen, BA-2 agar; conditions: Enterococcus faecalis, strain 9011
Proteus rettgeri = assay: MIC aerobic screen, BA-2 agar; conditions: Providencia rettgeri, read-out: Minimum Inhibitory Concentration
[4] = test system: Acinetobacter calcoaceticus; assay: MIC aerobic screen, H-59 synthetic agar; conditions: read-out: Minimum Inhibitory Concentration
Enterobacter cloacae = assay: MIC aerobic screen, H-59 synthetic agar; conditions: read-out: Minimum Inhibitory Concentration
Pseudomonas aeruginosa [5] = assay: MIC aerobic screen, H-59 synthetic agar
Serratia marcescens = assay: MIC aerobic screen, H-59 synthetic agar
Streptococcus faecalis [6] = assay: MIC aerobic screen, H-59 synthetic agar; conditions: Enterococcus faecalis, read-out: Minimum Inhibitory Concentration
[7] = read-out: Minimum Inhibitory Concentration, Table I, BA-2 agar
[8] = read-out: Minimum Inhibitory Concentration, Table II, additional tests

CC1(O)CC(C(N)=O)N=C1c1ncccc1O (stereo not drawn) [EM4940A, 2,4-trans-3,4-dihydro-4-hydroxy-5-(3-hydroxy-2-pyridinyl)-4-methyl-2H-pyrrole-2-carboxamide]
MIC (Bifidobacterium dentium): > 100 µg/mL
MIC (Hemophilus vaginalis; strain 8568, read-out: Minimum Inhibitory Concentration): 100 µg/mL (≈ 425 µM)
Minimum Inhibitory Concentration (Hemophilus vaginalis; strain 9640): 100.00 µg/mL
MIC [1, 7]: 50 µg/mL (≈ 213 µM)
MIC [1, 8]: 100 µg/mL (≈ 425 µM)
MIC (Klebsiella aerogenes; [7]): 100 µg/mL (≈ 425 µM)
MIC (Klebsiella aerogenes; [8]): 50 µg/mL (≈ 213 µM)
MIC (Klebsiella pneumoniae; Klebsiella pneumoniae, read-out: Minimum Inhibitory Concentration): 50 µg/mL (≈ 213 µM)
Minimum Inhibitory Concentration (Klebsiella pneumoniae; Table II, additional tests, strain 11,066): 50 µg/mL
MIC (Proteus morganii; [7]): 50 µg/mL (≈ 213 µM)
MIC (Proteus morganii; [8]): 100 µg/mL (≈ 425 µM)
MIC (Pseudomonas aeruginosa [2]; read-out: Minimum Inhibitory Concentration, Table I, BA-2 agar, strain 8754): > 100 µg/mL
MIC (Pseudomonas aeruginosa [2]; read-out: Minimum Inhibitory Concentration, Table I, BA-2 agar, strain 9330): 50 µg/mL (≈ 213 µM)
MIC (Pseudomonas aeruginosa [2]; read-out: Minimum Inhibitory Concentration, Table I, BA-2 agar, strain 9545): 25 µg/mL (≈ 106 µM)
MIC (Pseudomonas aeruginosa [2]; read-out: Minimum Inhibitory Concentration, Table II, additional tests, strain 8754): 100 µg/mL (≈ 425 µM)
MIC (Pseudomonas aeruginosa [2]; read-out: Minimum Inhibitory Concentration, Table II, additional tests, strain 9330): > 200 µg/mL
MIC (Pseudomonas aeruginosa [2]; read-out: Minimum Inhibitory Concentration, Table II, additional tests, strain 9545): 12.5 µg/mL (≈ 53.1 µM)
MIC (Salmonella typhimurium; Salmonella enterica, TYPHIMURIUM, read-out: Minimum Inhibitory Concentration): 50 µg/mL (≈ 213 µM)
Minimum Inhibitory Concentration (Salmonella typhimurium; Table II, additional tests, strain 9201): 50 µg/mL
MIC (Staphylococcus aureus; read-out: Minimum Inhibitory Concentration, Table I, BA-2 agar, strain 2400): > 100 µg/mL
MIC (Staphylococcus aureus; read-out: Minimum Inhibitory Concentration, Table I, BA-2 agar, strain 10,165): 50 µg/mL (≈ 213 µM)
MIC (Staphylococcus aureus; read-out: Minimum Inhibitory Concentration, Table I, BA-2 agar, strain 11,239): > 100 µg/mL
MIC (Staphylococcus aureus; read-out: Minimum Inhibitory Concentration, Table II, additional tests, strain 2400): > 200 µg/mL
MIC (Staphylococcus aureus; read-out: Minimum Inhibitory Concentration, Table II, additional tests, strain 2661): > 200 µg/mL
MIC (Staphylococcus aureus; read-out: Minimum Inhibitory Concentration, Table II, additional tests, strain 10,165): 100 µg/mL (≈ 425 µM)
MIC (Staphylococcus aureus; read-out: Minimum Inhibitory Concentration, Table II, additional tests, strain 11,239): 50 µg/mL (≈ 213 µM)
MIC (Streptococcus faecalis [3]; [7]): > 100 µg/mL
MIC (Streptococcus faecalis [3]; [8]): > 200 µg/mL
MIC (Proteus rettgeri): 50 µg/mL (≈ 213 µM)
MIC [4]: 25 µg/mL (≈ 106 µM)
MIC (Enterobacter cloacae): 100 µg/mL (≈ 425 µM)
MIC (Pseudomonas aeruginosa [5]; read-out: Minimum Inhibitory Concentration, Table III, H-59 agar, strain 8754): > 100 µg/mL
MIC (Pseudomonas aeruginosa [5]; read-out: Minimum Inhibitory Concentration, Table III, H-59 agar, strain 9330): 50 µg/mL (≈ 213 µM)
MIC (Pseudomonas aeruginosa [5]; read-out: Minimum Inhibitory Concentration, Table III, H-59 agar, strain 9545): 25 µg/mL (≈ 106 µM)
MIC (Serratia marcescens; Serratia marcescens, read-out: Minimum Inhibitory Concentration): 100 µg/mL (≈ 425 µM)
Minimum Inhibitory Concentration (Serratia marcescens; Table III, H-59 agar, strain 11,111): 100.0 µg/mL
MIC (Streptococcus faecalis [6]): > 100 µg/mL
